Here are results for five molecules from PubChem BioAssay AID2082 (Sanford-Burnham Center for Chemical Genomics, 2009).

This experiment deals with Tyrosine-protein phosphatase non-receptor type 7 (Homo sapiens) (UniProt P35236). The experiment in a line: off-target HePTP activity blockade – biochemical, DiFMUP fluorescence, selectivity assay for VHR1 inhibitor project, SAR follow-up (AID 2082). The conditions noted are these: recombinant HePTP.
Tyrosine-protein phosphatase non-receptor type 7 (Homo sapiens), sequence (P35236 whole entry, looked up): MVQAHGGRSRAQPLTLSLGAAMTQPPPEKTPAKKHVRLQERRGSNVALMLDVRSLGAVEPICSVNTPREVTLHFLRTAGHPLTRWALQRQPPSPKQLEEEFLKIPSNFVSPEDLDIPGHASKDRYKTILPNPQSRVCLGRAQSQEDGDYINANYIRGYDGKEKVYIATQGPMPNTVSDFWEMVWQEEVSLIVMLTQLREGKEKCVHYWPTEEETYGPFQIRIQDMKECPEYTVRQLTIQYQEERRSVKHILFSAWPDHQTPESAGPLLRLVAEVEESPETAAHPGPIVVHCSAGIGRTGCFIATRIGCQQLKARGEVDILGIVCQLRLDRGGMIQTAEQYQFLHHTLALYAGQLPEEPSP
As for `O=C1/C(=C/c2cn(-c3ccccc3)nc2-c2ccc(OCc3ccccc3F)cc2)SC(=S)N1CCS(=O)(=O)O`, the IC50 is 870 nM. As to `O=C1/C(=C/c2cn(-c3ccccc3)nc2-c2ccc(OCc3ccccc3)cc2)SC(=S)N1CCS(=O)(=O)O`, the IC50 was 1500 nM. Take `O=C1/C(=C/c2cn(-c3ccccc3)nc2-c2ccc(S(=O)(=O)N3CCCCC3)cc2)SC(=S)N1CCS(=O)(=O)O`: the IC50 was 2400 nM.

Turning to `O=C1/C(=C/c2cn(-c3ccccc3)nc2-c2ccc(OCc3ccc(Cl)cc3)cc2)SC(=S)N1CCS(=O)(=O)O`, the IC50 is 620 nM. As for `O=C1/C(=C/c2cn(-c3ccccc3)nc2-c2ccc(OCc3ccccc3Cl)cc2)SC(=S)N1CCS(=O)(=O)O`, the figure is 1200 nM.

A word on the IC50: it is the concentration needed to halve the response being measured.
